Assay results from patent publication US20150209794A1, “MODIFIED MICRONIZATION DEVICE AND METHOD THEREOF” (OEKOMINERAL AG, priority 2014, published 2015).

Test: Amorphous content / crystalline disorder by isothermal calorimetry (IC TAM 3)
Type: physicochemical
Conditions: ursolic acid, five repeated micronization procedures
Experimental: 1 kg of each sample of ursolic acid (98% purity, Sigma Aldrich) of an average particle size of […] was micronized five times in devices having different hitting elements. The discs were cooled through a feeder opening with liquid nitrogen spraying to avoid overheating of the heat-sensitive substance.
The micronized samples were analyzed for particle size (Malvern MasterSizer 2000), while the extent of crystalline disorder of particles was quantified with isothermal calorimetry (IC TAM 3, TA instruments, USA). Data was recorded with proprietary software Digitam 4.2.

## C[C@H]1[C@H](C)CC[C@]2(C(=O)O)CC[C@]3(C)C(=CC[C@@H]4[C@@]5(C)CC[C@H](O)C(C)(C)[C@@H]5CC[C@]43C)[C@H]12 [ursolic acid]
MICRONIZATION-1
  Amorphous Content: 3.68 %, w/w
MICRONIZATION-2
  Amorphous Content: 6.12 %, w/w
MICRONIZATION-3
  Amorphous Content: 19.23 %, w/w
